Experimental data published in US9623078B2, “Method for treating cardiac infarction using HMGB1 fragment” (GENOMIX CO., LTD, priority 2012, dated 2017).

Experiments:
TNFα mRNA = TNFα mRNA level in myocardial tissue of myocardial infarction model (real-time PCR); assay type: in vivo, mouse; conditions: ratio to GAPDH mRNA level; N=4; negative control 11±3; P<0.05; day not stated in text (FIG. 1C: 7 and 56 days)
Description: (§1) Bone marrow cells were collected from the thigh bone/lower leg bone of three-week-old mice (C57BL6-CAG-GFP transgenic mice), and the bone marrow cell suspension was administered ([…]) to the tail vein of six-week-old mice (C57BL6) after irradiation (10GY) to produce bone marrow chimeric mice. Sixty days after bone marrow transplantation, left fourth interspace thoracotomy was performed under general anesthesia in the supine position, and the proximal left anterior descending coronary artery was ligated to produce an extensive myocardial infarction model (left anterior descending coronary artery/circumflex occlusion model). In making the HMGB1 protein low molecular, a fragment peptide (1-44) of the HMGB1 protein was developed in consideration of retaining the activity of recruiting bone marrow mesenchymal stem cells. […] Regarding the number of bone marrow-derived mesenchymal stem cells accumulated in the tissue, the number of cells positive for both GFP and PDGFRα present in all areas of randomly-selected 5 sections were determined and the mean value was calculated. […] Real-time PCR was performed with the Gene Amp(R) PCR System 9700 (Life Technologies Japan) using the above-mentioned cDNA as a template, and the levels of TNFα and IL-1β mRNA were determined as a ratio to the GAPDH mRNA level. […]

[1] = system: acute stage myocardial infarction mouse model; assay: Cardiac function by echocardiography in myocardial infarction model; assay type: in vivo
Description: Bone marrow cells were collected from the thigh bone/lower leg bone of three-week-old mice (C57BL6-CAG-GFP transgenic mice), and the bone marrow cell suspension was administered ([…]) to the tail vein of six-week-old mice (C57BL6) after irradiation (10GY) to produce bone marrow chimeric mice. Sixty days after bone marrow transplantation, left fourth interspace thoracotomy was performed under general anesthesia in the supine position, and the proximal left anterior descending coronary artery was ligated to produce an extensive myocardial infarction model (left anterior descending coronary artery/circumflex occlusion model). In making the HMGB1 protein low molecular, a fragment peptide (1-44) of the HMGB1 protein was developed in consideration of retaining the activity of recruiting bone marrow mesenchymal stem cells. At 6, 24, 48, 72, and 96 hours after infarction creation, the HMGB1 protein fragment peptide (1-44) (5 μg/300 μl), or 300 μl of PBS (negative control group) was administered five times to the tail vain. Mice were euthanized by administration of excess ketamine and xylazine, and their hearts were collected. After the tissues were embedded in OCT compound, cryosections of 5 μm thickness were prepared. […] Regarding the number of bone marrow-derived mesenchymal stem cells accumulated in the tissue, the number of cells positive for both GFP and PDGFRα present in all areas of randomly-selected 5 sections were determined and the mean value was calculated. […] Real-time PCR was performed with the Gene Amp(R) PCR System 9700 (Life Technologies Japan) using the above-mentioned cDNA as a template, and the levels of TNFα and IL-1β mRNA were determined as a ratio to the GAPDH mRNA level. Improvement in the cardiac function was evaluated by measuring the left ventricular end-diastolic diameter (LVDd: Dd), left ventricular end-systolic diameter (LVDs: Ds), and left ventricular ejection fraction (LVEF: EF) using the Vivid 7 Echocardiography System and 12-MHZ Transducer (General Electric).

IL-1β mRNA = IL-1β mRNA level in myocardial tissue of myocardial infarction model (real-time PCR); assay type: in vivo, mouse; conditions: ratio to GAPDH mRNA level; N=4; negative control 6±1; P<0.05; day not stated in text (FIG. 1D: 7 and 56 days)
Description: as §1

[2] = system: PDGFRα-positive bone marrow mesenchymal stem cells; assay: Recruitment of PDGFRα-positive bone marrow-derived mesenchymal stem cells to myocardium in myocardial infarction model (GFP/PDGFRα immunofluorescence); assay type: in vivo, mouse; conditions: N=4, P<0.05
Description: as §1

## HMGB1 protein fragment peptide (1-44): peptide consisting of amino acids at positions 1 to 44 of an HMGB1 protein (SEQ ID NO: 3), produced by peptide synthesis (MGKGDPKKPRGKMSSYAFFVQTCREEHKKKHPDASVNFSEFSKK; Synthesized peptide from an HMGB1 protein)
TNFα mRNA
  TNFα mRNA level, non-infarction site: 4±2 GAPDH
[1]; Day 56 after infarction, N=8, negative control (N=16) 6.3±0.2, P<0.05
  left ventricular end-diastolic diameter (DD): 5.8±0.2 mm
[1]; Day 56 after infarction, N=8, negative control (N=16) 20±4, P<0.05
  left ventricular ejection fraction (EF): 26±4%
[1]; myocardial infarction model, five-day administration
  aggravation of left ventricular systolic function, left ventricular enlargement, and left ventricular remodeling: significantly suppressed
IL-1β mRNA
  IL-1β mRNA level, non-infarction site: 2±1 GAPDH
[2]; day 7 post infarction creation, 5 μg/300 μl tail vein x5 (6, 24, 48, 72, 96 h), negative control 32±9
  number of PDGFRα-positive bone marrow-derived mesenchymal cells, non-infarction site: 52±11 cells/mm^2
[2]; seven days after creating myocardial infarction
  recruitment of PDGFRα-positive bone marrow mesenchymal stem cells in all areas (infarction, border, non-infarction sites) vs. negative control: significantly recruited
